Reference: US20210163489A1, “PYRAZOLOPYRIMIDINE DERIVATIVES AND THE COMPOSITIONS AND METHODS OF TREATMENT REGARDING THE SAME” (NysnoBio Ireland DAC, priority 2016, published 2021)

Experiments:
[1] = tested on: S-HeLa stably expressing a YFP-Parkin fusion protein; assay: Cell rating experiments: Parkin-dependent induction of mitophagy (Tomm20 immunofluorescence); assay type: cell-based; design: key to Cell Ratings [Example 4] (cell activity): +++: >70% effect at 10 μM; ++: 69%-31% effect at 10 μM; +: <30% effect at 10 μM; −: negative at 10 μM; settings: Tomm20 negative cells, 6 μM CCCP, compound at 10 μM; for activation at 10 µM: 20 h, read-out: Cell Ratings [Example 4] (cell activity); for Cell Ratings [Example 4] (cell activity): 20 hours
Method: Compounds: All compounds were dissolved in DMSO to a concentration of 25 mM and stored at −20° C. Compound 1 is N,N′-(1-phenyl-1H-1,2,4-triazole-3,5-diyl)dibenzamide.
Cell Culture: S-HeLa stably expressing a YFP-Parkin fusion protein (kindly donated by Prof. Richard J. Youle, Porter Neuroscience Research Center, Bethesda, Md., USA) were utilised to assess Parkin-dependent induction of mitophagy. 4000 cells were seeded in each well of a 96 well plate (Parkin Elmer ViewPlate-96 F TC, cat. N. 6005182) and left to grow for 24 hours.
Subsequently cells were incubated with vehicle (DMSO) or 6 μM CCCP for 1 hour prior to adding increasing concentrations of compound (1, 2.5, 5, 10 μM), each condition run in replicate of five. After 20 hours cells were processed for immunofluorescence.
Immunofluorescence: Samples were fixed in 4% PFA for 25 minutes RT and permeabilized with PBS 0.1% Triton-X100 for 3 minutes on ice, blocked with PBS 3% BSA, 0.3% Triton-X100 for 2 hours RT, followed by overnight incubation with primary antibody at 4° C. ([…] rabbit Tomm20 antibody FL-145; Santa Cruz Biotechnology) diluted in PBS 0.1% BSA, 0.3% Triton-X100. The secondary goat anti-rabbit antibody conjugated with DyLight 649 (Jackson ImmunoResearch) was applied for 1 hour at room temperature at a concentration of […] in conjunction with […] Hoechst33342.
Cells were imaged using an Olympus ScanR automated microscope equipped with motorised stage and 20x APO planar objective. 18 images were acquired for each well using the following combination of excitation/emission filters: Hoechst33342 was excited through a 350/50 nm band pass filter and fluorescence intensity was collected through a 460/30 band pass filter. YFP was excited through a 500/20 nm band pass filter and fluorescence intensity was collected through a 540/35 band pass filter. DyLight 649 was excited through a 640/30 nm band pass filter and fluorescence intensity was collected through 700/75 band pass filter. Images were processed and analysed as described in the Image Analysis section.
Image analysis: Images were processed and analysed using Columbus HCS Analysis software (Version 2.5.0., PerkinElmer) as follows:
Tomm20 fluorescence intensity was corrected using the parabola algorithm. Hoechst 33342 fluorescence was used to identify and count cells. Cells were segmented according to Tomm20 fluorescence intensity. Spot detection was optimized to recognize number and total cellular area of Tomm20 stained clusters (mitochondria).
Tomm20 staining intensity, spot numbers and spot area were used to train a linear classifier algorithm that discriminated between Tomm20 positive (high intensity, spot numbers and spot area) and Tomm20 negative cells (low intensity, spot numbers and spot area).
Bar graphs were generated reporting the number of Tomm20 negative cells expressed as percentage of total cells imaged for each well (FIGS. 3 and 6). Results were shown as mean ±SD of a representative experiment performed in triplicate. +++ indicates >70% effect at 10 μM; ++ indicates 69%-31% effect at 10 μM; + indicates <30% effect at 10 μM; − indicates negative at 10 μM; NA=not available.

[2] = Metabolic stability in human liver microsomes (HLM); assay type: in vitro ADME; settings: pH 7.4, 1 μM compound, 1.0 mg/mL microsome, NADPH, read-out: HLM t1/2
Method: Compounds were also tested for metabolic stability in both rat liver microsomes (RLM) and human liver microsomes (HLM) and their half-life calculated (See Table 6). The assay was performed as follows. The total volume for each incubation was 250 μL. A 100 μM DMSO solution of compound (diluted from 10 mM stock solution) was spiked into 50 mM KH2PO4 (pH 7.4) buffer containing liver microsome at a concentration of 1.0 mg/mL. The reaction was initiated by the addition of 50 μL of 1 mM NADPH. The final concentration of each compound was 1 μM (1% DMSO). The positive controls, phenacetin for CYP1A2, diclofenac for CYP2C9, omeprazole for CYP2C19, dextromethorphan for CYP2D6 and midazolam for CYP3A4 were added to a separate tube with the final substrate concentrations of 1 μM (1% DMSO) for evaluating the enzyme activities in the liver microsomes. At 0, 15, 30 and 60 min, an aliquot of 15 μL reaction mixtures were removed and 200 μL of methanol (with internal standard of 25 ng/mL propranolol) was added to quench the reaction. The resulting mixture was centrifuged and supernatant was used for LC-MS/MS analysis.
The signals for each compound, or the metabolites for the probe substrates and the internal standard were integrated and the peak area ratios to internal standard were generated. Percent parent remaining at a specified timepoint was calculated based on the peak area ratios at time 0 (as 100%) for in vitro metabolic stability studies in liver microsome and hepatocyte. The observed rate constant (kobs) for the metabolism of substrates was calculated by plotting the natural log of percentage substrate remaining versus time of incubation with the slope being kobs. The half-life (T1/2) was calculated according to the following equation: […]

Compound `Cc1nn2c(O)cc(C(C)(C)C)nc2c1-c1ccc(Cl)cc1` [F] has an activation at 10 µM [1] of 31 to 69%.
Work on `Cc1nc2c(-c3ccccc3)cnn2c(S)c1Cc1ccccc1` [Compound CC, 6-benzyl-5-methyl-3-phenyl-pyrazolo[1,5-a]pyrimidin-7-thiol] yielded an activation at 10 µM [1] of over 70% and a half-life at 1 μM [2] of 0.382 h.
For `Cc1cc(C)c2c(n1)nn1c(S)cc(C)nc21` [Compound E], the activation at 10 µM [1] was over 70% and the half-life at 1 μM [2] was 2.88 h.
`Sc1c(Cc2ccccc2)cnc2c(-c3ccccc3)cnn12` [Compound Z, 6-benzyl-3-phenyl-pyrazolo[1,5-a]pyrimidin-7-thiol] gave an activation at 10 µM [1] of 31 to 69%.
Compound `Cc1cc2nc(C)c(Cc3ccc(Cl)cc3)c(O)n2n1` [Compound P, 6-[(4-chlorophenyl)methyl]-2,5-dimethyl-pyrazolo[1,5-a]pyrimidin-7-ol] has an activation at 10 µM [1] of under 30%.
Compound `Cc1cc(S)n2ncc(-c3cccc(N(C)C)c3)c2n1` [UU] has a half-life at 1 μM [2] of 0.55 h.
For `COc1ccccc1-c1c(C)nn2c(S)cc(C)nc12` [Compound D], the activation at 10 µM [1] was under 30%.
Work on `Cc1cc(S)n2ncc(-c3ccc(F)cc3)c2n1` [Compound L, 3-(4-fluorophenyl)-5-methylpyrazolo[1,5-a]pyrimidine-7-thiol] yielded an activation at 10 µM [1] of over 70% and a half-life at 1 μM [2] of 2.68 h.
In the case of `Cc1nc2c(-c3ccncc3)c(C)nn2c(S)c1Cc1ccccc1` [MM], the “Cell Ratings [Example 4] (cell activity)” value [1] is reported as “−”.
With `Cc1nc2c(C(F)(F)F)c(C)nn2c(S)c1Cc1ccccc1` [LL] the activation at 10 µM [1] was 31 to 69%.
`Cc1nc2c(-c3ccccn3)c(C)nn2c(O)c1Cc1ccccc1` [FF] gave an activation at 10 µM [1] of under 30%.
Compound `Cc1nc2c(-c3ccccc3)c(C)nn2c(S)c1Cc1ccccc1` [Compound A, 6-benzyl-2,5-dimethyl-3-phenylpyrazolo[1,5-a]pyrimidine-7-thiol] has a half-life at 1 μM [2] of 1.05 h.
With `Cc1nc2c(-c3ccccc3)c(C)nn2c(S)c1Cc1ccccn1` [Compound BB, 2,5-dimethyl-3-phenyl-6-(2-pyridylmethyl)pyrazolo[1,5-a]pyrimidine-7-thiol] the “Cell Ratings [Example 4] (cell activity)” value [1] was “−”.
`Cc1cc(S)n2ncc(-c3ccccc3)c2n1` [Compound C] gave an activation at 10 µM [1] of 31 to 69%.
Work on `Cc1nc2c(-c3ccccc3)c(C)nn2c(O)c1Cc1ccccc1` [T] yielded an activation at 10 µM [1] of under 30%.
With `Cc1nn2c(S)c3c(nc2c1-c1ccccc1)CCCC3` [Compound K] the activation at 10 µM [1] was 31 to 69%.
For `CCc1nn2c(S)cc(C)nc2c1-c1ccc(F)cc1` [Compound I], the activation at 10 µM [1] was 31 to 69%.
Compound `COc1ccc(-c2cnn3c(S)cc(C)nc23)cc1` [SS] has a half-life at 1 μM [2] of 0.74 h.
`Cc1nc2c(-c3ccccc3)cnn2c(O)c1Cc1ccccc1` [Compound U, 6-benzyl-5-methyl-3-phenyl-pyrazolo[1,5-a]pyrimidin-7-ol] showed an activation at 10 µM [1] of 31 to 69%.
Work on `Cc1nn2c(S)c3c(nc2c1-c1ccccc1)CN(C)CC3` [Compound C3] yielded a half-life at 1 μM [2] of 2.57 h.
Compound `Cc1nn2c(S)c(Cc3ccccc3)cnc2c1-c1ccccc1` [Compound DD, 6-benzyl-2-methyl-3-phenyl-pyrazolo[1,5-a]pyrimidin-7-thiol] has an activation at 10 µM [1] of 31 to 69%.
With `Cc1cc2nc(C)c(Cc3ccc(Cl)cc3)c(S)n2n1` [Compound R, 6-[(4-chlorophenyl)methyl]-2,5-dimethyl-pyrazolo[1,5-a]pyrimidine-7-thiol] the activation at 10 µM [1] was under 30%.
Work on `Cc1cc2nc(C)c(Cc3ccccc3)c(S)n2n1` [S] yielded an activation at 10 µM [1] of under 30%.
Compound `CC(C)(C)c1cc(O)n2ncc(-c3ccccc3)c2n1` [J] has an activation at 10 µM [1] of 31 to 69%.
In the case of `Cc1nc2c(-c3ccccc3)c(C)nn2c(S)c1Cc1ccncc1` [Compound AA, 2,5-dimethyl-3-phenyl-6-(4-pyridylmethyl)pyrazolo[1,5-a]pyrimidine-7-thiol], the activation at 10 µM [1] is reported as over 70% and the half-life at 1 μM [2] is reported as 1.09 h.
With `Cc1ccc(-c2cnn3c(S)cc(C)nc23)cc1` [TT] the half-life at 1 μM [2] was 0.197 h.
